# Ends that are not written are not given here.
# Assays:
# HUVECs or UASMCs = assay: Selective isolation of endothelial versus smooth muscle cells with peptide-conjugated magnetic beads in whole blood; type: cell-based, human; conditions: medium containing 20% whole blood, 30 min
# Experimental: (§1) The synthetic biotinylated binding peptide SEQ ID NO: 4 was further examined for its ability to bind endothelial cells compared to other cell types (see FIG. 16). […] ECFCs are clonally expanded cells isolated from human umbilical cord blood, and are considered highly proliferative endothelial progenitor cells (EPCs) based on their clonogenic and proliferative potential. In another experiment, binding peptide SEQ ID NO: 4 was assayed for its ability to selectively isolate endothelial cells versus smooth muscle cells in the presence of whole blood. HUVECs or UASMCs were incubated in the presence of medium containing 20% whole blood and binding peptide SEQ ID NO: 4-conjugated magnetic beads (via biotin-SA) for 30 min. The solutions containing the bead-peptide-cell complexes were then passed through a […] LS column in a magnetic field. The column was washed, and the remaining peptide-bound cells were then released from the magnetic field and counted.
# [1] = system: human umbilical vein endothelial cells (HUVECs); assay: Biotinylated peptide binding to endothelial and other cells by flow cytometry; conditions: biotinylated peptide 10 μM
# Experimental: as §1
# [2] = system: umbilical artery smooth muscle cells (UASMCs); assay: as above; conditions: biotinylated peptide 10 μM
# Experimental: as §1
# [3] = system: MSCs captured from bone marrow; assay: Adipocyte differentiation of captured MSCs (Oil Red O); type: cell-based; conditions: 21 days adipocyte differentiation medium
# Experimental: After capture of MSCs using cell binding peptide SEQ ID NO: 4 with the […] magnetic system according to Example 6, the ability of the captured cells to differentiate into an adipocyte lineage was examined. The MSCs present in the […] column eluants (see Example 6) were cultured for 21 days in complete medium (DMEM, 10% FBS, 100 units/mL penicillin, 100 μg/mL streptomycin, and 2 mM glutamine) supplemented with 0.5 mM isobutyl methylxanthine, 1 μM dexamethasone, 10 μM insulin, 200 μM indomethacin, and 1% antibiotic/antimycotic. Following the 21 day incubation, the cells were fixed in 4% paraformaldehyde in PBS for 15 minutes, washed in 60% isopropanol for 5 minutes, and stained with Oil Red O (SIGMA) for 10 minutes to determine the extent of adipogenesis (see FIG. 26, panels A (undifferentiated MSCs) and panel B (adipocyte differentiated MSCs)). The image of the adipose differentiated cells (FIG. 26, panel B) contains a larger magnification inset where the lipid vacuoles are clearly visible.
# human MSCs [4] = assay: Capture of cultured MSCs on peptide-coated streptavidin microbeads (LS columns); type: cell-based; conditions: 160,000 cultured human MSCs
# Experimental: In this experiment the ability of the biotinylated cell binding peptide SEQ ID NO: 4 to capture human MSCs from a homogeneous cultured cell population was examined. The cell binding peptide SEQ ID NO: 4 was biotinylated as described herein at Example 2. The cell binding peptide SEQ ID NO: 4, and a non-binding control peptide, were added to separate 300 μl volumes of […] BIOTEC Streptavidin microbeads at a concentration of 20 μM. These beads are made from iron filings, coated with a dextran coating which is functionalized with streptavidin moieties. Peptide was incubated with beads for 45 min on ice. The 300 μl of peptide coated microbeads were added to pre-equilibrated LS columns outside of the magnetic field to evenly distribute the magnetic beads throughout the columns. Columns were then placed into a magnetic field, and excess peptide was washed away with buffer while retaining the peptide coated microbeads. Cultured and expanded human MSCs from bone marrow aspirate (160,000 cells; LONZA) were added to each LS column and allowed to pass through by gravity flow. Flowthrough was collected and cycled through the columns 5 times, after which the columns were washed with 5 ml buffer. […] The collected flowthrough with 5 ml wash and eluted cells were spun down, resuspended in a smaller volume, and counted by hemacytometer (see FIG. 17). […]
# dermal fibroblasts = assay: Biotinylated peptide binding by flow cytometry (Neutravidin-PE); parameters: species or system human; conditions: biotinylated peptide 25 μM, 30 min, 4° C.
# Description: (§2) The synthetic biotinylated cell binding peptide SEQ ID NO: 4 was examined for its ability to specifically bind MSCs compared to a number of other cells types including adipose-derived mesenchymal stem cells (ASCs), dermal fibroblasts, rodent MSCs, red blood cells, monocytes, lymphocytes and granulocytes. The cell binding peptide was biotinylated as described herein at Example 2. Cultured cells of each type were either purchased (ASCs and dermal fibroblasts) or isolated from rodent bone marrow (rodent MSCs) or human blood. Cells were first harvested and resuspended at 10^6/mL in PBS+2% fetal bovine serum (FBS). An aliquot of cells (50 μL) was incubated in 50 μL of peptide solution (25 μM in PBS+FBS) for 30 min at 4° C. Cells were then washed twice in PBS+FBS with 300×g centrifugation for 5 min between washes. Fluorescently-tagged neutravidin (Neutravidin-PE from INVITROGEN) was then added to the cells to label biotinylated peptide bound to cells. Neutravidin-PE was diluted 1:250 from stock and applied at 50 μL to cells. Cells were then washed in PBS+FBS, and acquired on a BD […]. Peptide reactivity was then measured as percent positivity relative to Neutravidin-PE staining without the addition of biotinylated peptide.
# [5] = system: human ASCs (adipose-derived mesenchymal stem cells); assay: as above; conditions: biotinylated peptide 25 μM, 30 min, 4° C.
# Description: as §2
# human MSCs [6] = assay: as above; conditions: biotinylated peptide 25 μM, 30 min, 4° C.
# Description: as §2
# HUVECs = assay: Endothelial cell phenotype and anti-thrombogenic protein secretion (flow cytometry, ELISA); type: cell-based, human; conditions: HUVECs on collagen with 10 μM free peptide, 24 hours
# Experimental: Once immobilized on a vascular graft, endothelial cells must retain their characteristic properties of promoting endothelialization. Therefore, the phenotype, viability, and anti-thrombogenic protein expression profiles were evaluated for endothelial cells in the presence of collagen modified with the endothelial cell binding peptide SEQ ID NO: 4 (generated according to Example 7 using BS^3 reagent). […] Specifically, HUVECs were plated on SEQ ID NO: 4 peptide-modified collagen, collagen with 10 μM free SEQ ID NO: 4 peptide or collagen alone for 24 hours. Flow cytometry was performed using a BD […], and ELISAs were performed according to manufacturers instructions. (FIGS. 22A & 22B). Tissue-type Plasminogen Activator (t-PA) and 6-keto Prostaglandin F1a protein expression levels secreted in this assay are aligned with other reports on cultured HUVECS (Kimura and Yokoi-Hayashi, Biochim Biophys Acta, 1996, 1310:1-4; Merhi-Soussi et al., J Leukoc Biol, 2000, 68:881-9).
# peripheral blood cells = assay: Biotinylated peptide binding to endothelial and other cells by flow cytometry; parameters: species or system human; conditions: biotinylated peptide 10 μM
# Experimental: as §1
# [7] = system: endothelial colony forming cells (ECFCs); assay: as above; parameters: species or system human; conditions: biotinylated peptide 10 μM
# Experimental: as §1
# [8] = system: MSCs captured from bone marrow; assay: Chondrocyte differentiation of captured MSCs (aggrecan immunostaining); type: cell-based; conditions: 24 days CHONDRODIFF medium
# Experimental: To examine chondrocyte differentiation, the MSCs present in the […] column eluants (see Example 6) were pelleted by centrifugation at 150×g for 5 minutes. Cells were washed once with 1 ml MACS NH CHONDRODIFF Medium without disturbing the pellet. Cells were spun again and 1 mL CHONDRODIFF Medium was added to each pellet. Every third day, medium was aspirated and replaced with fresh pre-warmed medium. After 24 days in culture, cells exposed to CHONDRODIFF medium formed cartilage plugs or nodules, whereas control cells formed only loose or small nodules. Cells were washed once with PBS and fixed in neutral buffered formalin overnight. Sections were embedded in paraffin and sectioned at 5 microns. Sections were examined by hemotoxylin and eosin staining (data not shown). Sections were further examined by immunostaining for aggrecan, a major structural component of cartilage. In FIG. 27, sections from the periphery (panels A and B) or center (panels C and D) were incubated with an antibody against aggrecan (ABCAM) (panels B and D) or with secondary detection reagents only as a control (panels A and C), then counterstained with DAPI to reveal cell nuclei. […] Control images of captured cells grown in the absence of differentiation medium could not be taken due to the small and loose nature of nodules.
# [9] = system: MSCs captured from bone marrow; assay: Osteoblast differentiation of captured MSCs (Alizarin Red S); type: cell-based; conditions: 14 days osteoblast differentiation medium
# Experimental: For osteogenic differentiation, the MSCs present in the […] column eluants (see Example 6) were cultured for 14 days in complete medium supplemented with 0.1 μM dexamethasone, 50 μM ascorbate-2-phosphate, 10 mM β-glycerophosphate, and 1% antibiotic/antimycotic. Calcium mineralization was measured by Alizarin Red S (SIGMA) staining to reveal mineralizing osteoblasts (see FIG. 26, panel C (undifferentiated MSCs) and panel D (osteoblast differentiated MSCs)).
# [10] = system: MSCs from bone marrow aspirate; assay: Capture of MSCs from bone marrow aspirate with biotinylated peptide and magnetic beads (CFU); type: cell-based
# Experimental: This experiment was performed to examine the ability of cell binding peptide SEQ ID NO: 4 to capture MSCs directly from bone marrow aspirate in comparison to two separate antibodies against the CD105 I antigen (CD105) and the MSCA-1 stem cell antigen (MSCA-1). This experiment employed biotinylated peptides with streptavidin-coated […] magnetic beads. The peptides were biotinylated as described herein at Example 2. […] For the antibody capture experiment, magnetic beads having covalently attached CD105 or MSCA-1 antibody were employed ([…]). Prior to incubation with the peptides and antibodies, bone marrow aspirate (BMA) was mixed with 5 volumes of 10 mM ammonium chloride for 1-2 min at room temperature to lyse red blood cells. The lysate was centrifuged for 5 min at 300×g and the supernatant discarded. The cell pellet was washed with wash buffer (PBS+0.5% bovine serum albumin+0.5 mM EDTA) and cells were resuspended in […] peptide at a concentration of 10^8 per mL. For peptide binding studies, the cell suspension was incubated with the biotinylated peptides for 30 min at 4° C. to allow for binding. After incubation, cells were spun down at 300×g for 5 min, and peptide solution was aspirated. Cells were then rinsed twice with wash buffer, with centrifugation between washes. […] Colony forming units (CFUs) were counted after 14 days in culture. […]
sequence,measurement,setting,value
"SSFWDVCQGDGTCYGGGSR (not fully specified; cysteine pairing not given here) [SEQ ID NO: 4, tested biotinylated (C-terminal GSSGK(biotin)) or attached to substrates via spacer and lysine]",HUVECs isolated compared to UASMCs,HUVECs or UASMCs,8 fold
same,cross-reactivity with HUVECs,[1],cross-reacted strongly
same,cross-reactivity with UASMCs,[2],weakly
same,adipogenesis of captured MSCs,[3],adipogenesis pathway remains intact
same,capture of MSCs,human MSCs [4],approximately 70%
same,binding to dermal fibroblasts,dermal fibroblasts,high binding
same,binding to human ASCs,[5],high binding
same,binding to human MSCs (percent positivity relative to Neutravidin-PE alone),human MSCs [6],high binding
same,endothelial cell phenotype and anti-thrombogenic protein secretion,HUVECs,maintained their endothelial cell phenotype and their ability to secrete anti-thrombogenic proteins
same,cross-reactivity with peripheral blood cells,peripheral blood cells,no cross-reactivity
same,cross-reactivity with ECFCs,[7],cross-reacted strongly
same,aggrecan in nodules formed from captured MSCs,[8],aggrecan could be detected
same,osteogenic differentiation of captured MSCs,[9],osteogenic pathway remains intact
same,MSC capture from bone marrow aspirate (CFUs after 14 days),[10]; compared with CD105 and MSCA-1 antibody beads,as efficient as capture by either of the CD105 or MSCA-1 antibodies
same,"immunoreactivity of captured cells (CD29, CD44, CD73, CD105, CD166, CD90, CD45, CD34)",[10]; compared with CD105 isolated cells,no changes were observed

# — patent US8691946B2, “Methods and compositions for soft tissue repair” (Affinergy, LLC, priority 2009, dated 2014)
